Results as given in the NIST ThermoML archive (doi:10.1016/j.fluid.2017.01.019).
± gives the expanded uncertainty stated by the source.

Assay: xn = mol fraction of the nth substance listed
Conditions: 100 kPa, Liquid; for mass density: Vibrating tube method; for viscosity: Falling or rolling sphere viscometry; for speed of sound: Frequency=3 MHz, Sing-around technique in a fixed-path interferometer

CCOS(=O)(=O)[O-].CCn1cc[n+](C)c1 [1-ethyl-3-methylimidazolium ethyl sulfate] + CCCCO
Conditions	mass density, 289.15 K [kg/m3]	mass density, 303.15 K [kg/m3]	mass density, 308.15 K [kg/m3]	speed of sound, 298.15 K [m/s]	speed of sound, 303.15 K [m/s]	speed of sound, 308.15 K [m/s]	viscosity, 298.15 K [mPa·s]	viscosity, 303.15 K [mPa·s]	viscosity, 308.15 K [mPa·s]
x1 = 0.1071	894.433 ± 1.6	890.751 ± 1.6	887.005 ± 1.6	1289.1 ± 1.9	1273.7 ± 1.9	1258.4 ± 1.9	4.24 ± 0.16	3.75 ± 0.16	3.34 ± 0.16
x1 = 0.1982	955.118 ± 1.4	951.498 ± 1.4	947.88 ± 1.4	1334.4 ± 2.2	1319.9 ± 2.2	1305.4 ± 2.2	7.8 ± 0.19	6.51 ± 0.18	5.54 ± 0.17
x1 = 0.3069	1015.6 ± 1.5	1012.01 ± 1.5	1008.14 ± 1.5	1385.6 ± 2.6	1372 ± 2.6	1358.2 ± 2.6	10.83 ± 0.22	9.15 ± 0.2	7.92 ± 0.19
x1 = 0.3985	1058.77 ± 1.8	1055.33 ± 1.8	1051.76 ± 1.8	1430.2 ± 2.9	1417 ± 2.9	1403.8 ± 2.9	14.09 ± 0.27	11.98 ± 0.24	10.46 ± 0.23
x1 = 0.5048	1101.82 ± 2.5	1098.4 ± 2.5	1094.94 ± 2.4	1480.4 ± 3.3	1467.3 ± 3.3	1454.7 ± 3.3	19.44 ± 0.38	16.51 ± 0.33	14.4 ± 0.3
x1 = 0.603	1136.02 ± 3.3	1132.65 ± 3.2	1129.23 ± 3.2	1523.6 ± 3.6	1510.8 ± 3.6	1498.4 ± 3.6	26.62 ± 0.55	22.37 ± 0.46	19.31 ± 0.4
x1 = 0.7158	1169.99 ± 4.4	1166.67 ± 4.4	1163.39 ± 4.4	1571.7 ± 4	1559.1 ± 4	1546.8 ± 4	38.4 ± 0.84	31.74 ± 0.7	26.88 ± 0.59
x1 = 0.7951	1191.1 ± 5.4	1187.78 ± 5.3	1184.46 ± 5.3	1603.7 ± 4.3	1591.2 ± 4.3	1578.9 ± 4.3	49.51 ± 1.2	40.39 ± 0.94	33.7 ± 0.79
x1 = 0.9185	1219.88 ± 7.1	1216.56 ± 7	1213.19 ± 7	1649.7 ± 4.8	1637.3 ± 4.8	1625.2 ± 4.8	72.34 ± 2	57.89 ± 1.4	47.2 ± 1.2
x1 = 1	1236.33 ± 8.3	1232.93 ± 8.3	1229.57 ± 8.2	1682.3 ± 5.1	1670 ± 5.1	1657.9 ± 5.1	96.21 ± 3.2	75.89 ± 2.2	60.73 ± 1.6
